Assay results: patent publication US6521252B1, “Transfecting compounds which are sensitive to reducing conditions, pharmaceutical compositions containing them and their applications” (Aventis Pharma S.A., priority 1998, dated 2003)

How the values were obtained:
HepG2 cells [1] = assay: In vitro transfection efficiency, luciferase expression, HepG2 cells; format: cell-based; conditions: for inhibition of transfection due to the presence of serum proteins (in words): presence vs absence of serum
Experimental: (§1) The plasmid used is described in Patent WO 97/10343. This construct pCOR_pXL2774 comprises the gene encoding luciferase under the human cytomegalovirus very early gene promoter [hCMV-IE].
(§2) The nucleic acid solutions are diluted to 20 μg/ml in physiological saline (0.15 M NaCl).
(§3) The products described in the invention are dissolved in water at a concentration varying from 40 to 160 μmol and mixed volume for volume with the DNA solution. The final saline concentration is 75 mmol.

HepG2 cells [2] = assay: Toxicity of cytofectant mixtures, protein concentrations in cell lysates, HepG2 cells; conditions: for toxicity (in words): up to 160 μM of cationic lipid
Experimental: (§4) The cells are cultured under appropriate conditions in 24-well microplates (2 cm^2/well) and are transfected while they are in the exponential growth phase and at 50-70% confluence.
(§5) The cells are washed with twice 0.5 cm^3 of medium free of serum proteins and grown again either in serum-free medium (transfection in the absence of serum), or in complete medium (transfection in the presence of serum) 0.05 cm^3 of cytofectant mixture (0.5 μg DNA/well) are added to the cells (3 wells/condition DNA vector). When the cells are transfected in the absence of serum, the growth medium is supplemented 2 hours after transfection with the appropriate quantity of serum.
(§6) The toxicity of the cytofectant mixtures is estimated by a measurement of the protein concentrations in the cell lysates.

HeLa cells [3] = assay: In vitro transfection efficiency, luciferase expression, HeLa cells; format: cell-based; conditions: for inhibition of transfection due to the presence of serum proteins (in words): presence vs absence of serum
Experimental: as §1, §2, §3

HeLa cells [4] = assay: Toxicity of cytofectant mixtures, protein concentrations in cell lysates, HeLa cells; format: cell-based; conditions: up to 160 μM of cationic lipid
Experimental: as §4, §5, §6

[5] = Detergent action: solubilization of liposomes EPC/EPA (10:1) measured by turbidity; conditions: turbidity by spectrophotometer; compared with Triton X-100 (100% solubilization)
From the text: For that, an in vitro model is used which represents the biological membranes, namely liposomes EPC/EPA (egg phosphatidylcholine/egg phosphatidic acid, 10:1).
These liposomes are formed by dissolving the various constituents in chloroform, and then evaporating the said chloroform with the aid of a rotary evaporator. The lipid film obtained is redispersed in water, and then the liposomes are formed by sonication and heating.
The evaluation of the detergent action of the product added to the liposomes is made by measuring the turbidity with the aid of a spectrophotometer.

[6] = HepG2 cells, absence of serum proteins
[7] = HeLa cells, absence of serum proteins

Compound | expression of the transgene compared with reference cationic lipid REF (HepG2 cells [1]; [6]) | inhibition of transfection due to the presence of serum proteins (in words) (HepG2 cells [1]; HepG2 cells) | toxicity (in words) (HepG2 cells [2]) | inhibition of transfection due to the presence of serum proteins (in words) (HeLa cells [3]; HeLa cells) | toxicity (in words) (HeLa cells [4]) | further results
CCCCCCCCCCCCCCCCCCNC(=O)C(CSSCC(NC(=O)CNCCCNCCCCNCCCN)C(=O)NCCCCCCCCCCCCCCCCCC)NC(=O)CNCCCNCCCCNCCCN (stereo not shown) [compound (VI), [NH2(CH2)3NH (CH2)4NH (CH2)3NHCH2CO—CyNH (CH2)17CH3]2] | – | – | – | – | – | transgene expression in comparison with reference cationic lipid REF (HepG2 cells [1]; HepG2 cells, absence of serum (FIG. 3)): 4 times; survival (HepG2 cells [2]; transfection in the absence of serum proteins, cationic lipid dose 160 μM): 80%
NH2 (CH2)3NH(CH2)4NH(CH)3NHCH2COCys-[S—S—(CH2)17CH3]—NH (CH2)17CH3 [compound (II)] | up to 3 fold | no inhibitory effect | no significant toxicity | – | – | improvement of transfection compared with reference cationic lipid REF (HepG2 cells [1]; HepG2 cells, presence of serum proteins): up to 40 fold
NH2(CH2)3NH(CH2)4NH(CH2)3NHCH2COCyS-[S—S-Cholesterol]—NH(CH2)17CH3 [compound (V)] | – | no inhibition could be observed | no significant toxicity | no inhibition could be observed | no significant toxicity | gain in expression of the transgene, cholesterol instead of an alkyl chain (in words) (HepG2 cells [1]; HepG2 cells (FIG. 9)): very significant gain; gain in expression of the transgene, cholesterol instead of an alkyl chain (in words) (HeLa cells [3]; HeLa cells (FIG. 9)): very significant gain
NH2(CH2)3NH(CH2)4NH(CH2)3NHCH2COCys-[S—S—(CH2)4CH3]—N[(CH2)17CH3]2 [compound (I)] | – | no significant inhibition | no significant toxicity | no significant inhibition | no significant toxicity | transfection results compared with reference cationic lipid REF (in words) (HepG2 cells [1]; [6]): same order of magnitude; transfection results compared with reference cationic lipid REF (in words) (HeLa cells [3]; [7]): same order of magnitude
NH2(CH2)3NH(CH2)4NH(CH2)3NHCH2COCys-[S—S—(CH2)11CH3]—N[(CH2)17CH3]2 [compound (IV)] | about 9 fold | no significant inhibition | no significant toxicity | no significant inhibition | no significant toxicity | expression of the transgene compared with reference cationic lipid REF (HeLa cells [3]; [7]): about 2 fold
Triton X-100 | – | – | – | – | – | solubilization of the liposomes [5]: 100%
